Results taken from patent publication US10821100B2, “Triazolone compounds as mPGES-1 inhibitors” (Glenmark Pharmaceuticals S.A., priority 2012, dated 2020).

Target: T1, Recombinant human mPGES-1 (Homo sapiens, UniProt O14684)
T1 construct: made in house; host or cells: CHO cells (crude microsomal fractions)
T1 sequence (O14684 1-152): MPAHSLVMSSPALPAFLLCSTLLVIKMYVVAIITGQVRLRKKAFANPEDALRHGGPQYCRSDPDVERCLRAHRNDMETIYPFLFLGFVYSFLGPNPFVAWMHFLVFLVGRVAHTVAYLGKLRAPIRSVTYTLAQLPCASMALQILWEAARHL
Assay: In-vitro screening of mPGES-1 inhibitors (inhibition of PGE2 formation from PGH2, HTRF detection)
Assay type: biochemical
Settings: mPGES-1 enzyme; for inhibition at 1 µM: 1 μM test compound, read-out: Percentage inhibition at 1 μM; for inhibition at 1 µM / inhibition at 10 µM: crude microsomal fractions; for inhibition at 10 µM: 10 μM test compound, read-out: Percentage inhibition at 10 μM; for IC50: class symbols
How it was run: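 PGH2-to-PGE2 isomerization run for 1 min with 15 μM PGH2 after 10 min compound preincubation with microsomal enzyme (40–60 μg/mL) and 2.5 mM GSH, pH buffer 0.1 M potassium phosphate with EDTA. Stannous chloride quench, HTRF PGE2 readout, IC50 fitted against uninhibited reaction.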

inhibition at 1 µM [%]	inhibition at 10 µM [%]	IC50 [nM]	SMILES
50.6	95.2	–	COc1cc(-c2nn(-c3c(Cl)cccc3Cl)c(=O)[nH]2)ccc1C(=O)Nc1ccc(C)cc1Cl [Example-179, N-(2-Chloro-4-methylphenyl)-4-(1-(2,6-dichlorophenyl)-4,5-dihydro-5-oxo-1H-1,2,4-triazol-3-yl)-2-methoxybenzamide]
72.3	92.5	> 100	CC(C)(C)C(=O)NCc1cnc(C2CC2)c(-c2nn(-c3ccc(C(F)(F)F)cc3)c(=O)[nH]2)c1 [Example-180, N-((6-Cyclopropyl-5-(1-(4-(trifluoromethyl)phenyl)-4,5-dihydro-5-oxo-1H-1,2,4-triazol-3-yl)pyridin-3-yl)methyl)pivalamide]
88.2	94.3	< 50	CC(C)(C)C(=O)NCc1ccc(Cl)c(-c2nn(-c3ccc(C#CC4CC4)cc3F)c(=O)[nH]2)c1 [Example-181, N-(4-Chloro-3-(1-(4-(2-cyclopropylethynyl)-2-fluorophenyl)-4,5-dihydro-5-oxo-1H-1,2,4-triazol-3-yl)benzyl)pivalamide]
92.9	94	< 50	CC(C)(C)S(=O)(=O)NCc1ccc(Cl)c(-c2nn(-c3ccc(C(F)(F)F)cc3)c(=O)[nH]2)c1 [Example-182, N-(4-Chloro-3-(5-oxo-1-(4-(trifluoromethyl)phenyl)-4,5-dihydro-1H-1,2,4-triazol-3-yl)benzyl)-2-methylpropane-2-sulfonamide]
41.5	85.5	–	N#Cc1cnc(C(F)F)c(-c2nn(-c3ccc(C(F)(F)F)cc3)c(=O)[nH]2)c1 [Example-183, 6-(Difluoromethyl)-5-(5-oxo-1-(4-(trifluoromethyl)phenyl)-4,5-dihydro-1H-1,2,4-triazol-3-yl)nicotinonitrile]
98.6	94.3	< 50	O=C(NCc1ccc(Cl)c(-c2nn(-c3ccc(C(F)(F)F)cc3)c(=O)[nH]2)c1)C1CCC1 [Example-184, N-(4-Chloro-3-(5-oxo-1-(4-(trifluoromethyl)phenyl)-4,5-dihydro-1H-1,2,4-triazol-3-yl)benzyl)cyclobutanecarboxamide]
96.1	98.3	< 50	O=C(NCc1ccc(Cl)c(-c2nn(-c3ccc(C(F)(F)F)cc3)c(=O)[nH]2)c1)C1CCCC1 [Example-185, N-(4-Chloro-3-(5-oxo-1-(4-(trifluoromethyl)phenyl)-4,5-dihydro-1H-1,2,4-triazol-3-yl)benzyl)cyclopentanecarboxamide]
96.8	98	< 50	CC(C)(C)C(=O)NCc1cnc(C(F)F)c(-c2nn(-c3ccc(C(F)(F)F)cc3)c(=O)[nH]2)c1 [Example-186]
98.6	97.5	< 50	CC(C)C(=O)NCc1cnc(C(F)F)c(-c2nn(-c3ccc(C(F)(F)F)cc3)c(=O)[nH]2)c1 [Example-187, N-((6-(Difluoromethyl)-5-(5-oxo-1-(4-(trifluoromethyl)phenyl)-4,5-dihydro-1H-1,2,4-triazol-3-yl)pyridin-3-yl)methyl)isobutyramide]
89.5	99.3	50 to 100	CC(C)S(=O)(=O)NCc1cnc(C(F)F)c(-c2nn(-c3ccc(C(F)(F)F)cc3)c(=O)[nH]2)c1 [Example-188, N-((6-(Difluoromethyl)-5-(5-oxo-1-(4-(trifluoromethyl)phenyl)-4,5-dihydro-1H-1,2,4-triazol-3-yl)pyridin-3-yl)methyl)propane-2-sulfonamide]
96.2	98.5	< 50	O=C(NCc1cnc(C(F)F)c(-c2nn(-c3ccc(C(F)(F)F)cc3)c(=O)[nH]2)c1)C1CCC1 [Example-189, N-((6-(Difluoromethyl)-5-(5-oxo-1-(4-(trifluoromethyl)phenyl)-4,5-dihydro-1H-1,2,4-triazol-3-yl)pyridin-3-yl)methyl)cyclobutanecarboxamide]
100	100	< 50	O=C(NCc1ccc(Cl)c(-n2nc(-c3ccc(C#CC4CC4)cc3)[nH]c2=O)c1)C(F)(F)F [Example-190, N-(4-Chloro-3-(3-(4-(cyclopropylethynyl)phenyl)-5-oxo-4,5-dihydro-1H-1,2,4-triazol-1-yl)benzyl)-2,2,2-trifluoroacetamide]
93.5	100	> 100	CC(C)(CO)C(=O)NCc1ccc(Cl)c(-n2nc(-c3ccc(C#CC4CC4)cc3)[nH]c2=O)c1 [Example-191, N-(4-Chloro-3-(3-(4-(cyclopropylethynyl)phenyl)-5-oxo-4,5-dihydro-1H-1,2,4-triazol-1-yl)benzyl)-3-hydroxy-2,2-dimethylpropanamide]
99.3	99.3	< 50	CC(C)(CF)C(=O)NCc1cnc(C(F)F)c(-c2nn(-c3ccc(C(F)(F)F)cc3)c(=O)[nH]2)c1 [Example-192, 3-Fluoro-N-((6-(difluoromethyl)-5-(1-(4-(trifluoromethyl)phenyl)-4,5-dihydro-5-oxo-1H-1,2,4-triazol-3-yl)pyridin-3-yl)methyl)-2,2-dimethylpropanamide]
